Source: PubChem BioAssay AID1194 (EPA DSSTox, 2008)
Activity calls are given as the source filed them.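 How the source made its calls: active means chemicals rated mutagenic or weakly mutagenic in the Salmonella bacterial test by one literature review, or positive overall by another; inconclusive means no clear call, values can overlap the other calls; inactive means the rest.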

Tested on: Salmonella typhimurium Ames mutagenicity, literature compiled
Assay: DSSTox (CPDBAS) Carcinogenic Potency Database Salmonella Mutagenicity
From the text: The Carcinogenic Potency Database (CPDB) is a unique and widely used international resource of the results of over 6500 chronic, long-term animal cancer tests on over 1500 chemical substances. The CPDB provides easy access to the bioassay literature, with qualitative and quantitative analyses of both positive and negative experiments that have been published over the past 50 years in the general literature and by the National Cancer Institute/National Toxicology Program. The CPDB standardizes the diverse literature of cancer bioassays that vary widely in protocol, histopathological examination and nomenclature, and in the published author's choices of what information to provide in their papers. Results are reported in the CPDB for tests in rats, mice, hamsters, dogs, and nonhuman primates, and are based on the most positive result among all experiments for each sex-species. The DSSTox CPDBAS (all species) file incorporates data from the CPDB Summary Tables for the full list of over 1500 chemical substances tested in at least one species.
A chemical is classified within the CPDB as mutagenic, i.e. "active", in the Salmonella assay if it was evaluated overall as either "mutagenic" or "weakly mutagenic" by Zeiger [Zeiger, E. (1997) Genotoxicity Database. In: Gold and Zeiger, Eds. Handbook of Carcinogenic Potency and Genotoxicity Databases. Boca Raton, FL: CRC Press, pp. 687-729. http://potency.berkeley.edu/CRCbook.html] or as overall "positive" by the EPA Gene-Tox Program [Kier et al. (1986) Mutat. Res. 168: 69-240].

Row | SMILES | outcome
1 | C=CC(O)c1ccc2c(c1)OCO2 (stereo not given) | inactive
2 | [C-]1=CC=CC1.[C-]1=CC=CC1.[Cl-].[Cl-].[Ti+4] | active; inactive
3 | C[N+](C)(C)CCCl | inactive; active
4 | Cc1ccc(N)cc1 | active
5 | Nc1ccc(Nc2ccccc2)cc1 | inactive; active
6 | O=S(=O)(c1ccc(Cl)cc1)c1ccc(Cl)cc1 | inactive
7 | O=CNc1nc(-c2ccc([N+](=O)[O-])o2)cs1 | active; inactive
8 | COP(=O)(OC)O/C(=C\Cl)c1cc(Cl)c(Cl)cc1Cl | inactive; active
9 | C=CC(=O)NCO | inactive
10 | CC(COc1ccccc1)N(CCCl)Cc1ccccc1 (stereo not given) | active; inactive
11 | C=CCN=C=S | active
12 | O=NN1CCCCCCC1 | active; inactive
13 | NC(N)=O | inactive; active
14 | ClC(Br)Br | inactive
15 | c1ccc2cc(Nc3ccc(Nc4ccc5ccccc5c4)cc3)ccc2c1 | active
16 | Cc1cc(C(C)(C)C)c(O)c(C(C)(C)C)c1 | inactive
17 | Nc1ncc([N+](=O)[O-])s1 | active
18 | N/C(=N\O)c1ccc([N+](=O)[O-])o1 | active
19 | COc1ccc(O)cc1 | inactive; active
20 | Cc1ccc(N)cc1Cl | inactive; active
21 | Cc1ccccc1N | active
22 | Clc1ccccc1Cl | inactive
23 | CC/C(=C(/CC)c1ccc(O)cc1)c1ccc(O)cc1 | inactive
24 | O=C1C=C2C(=CCOC2O)O1 (stereo not given) | inactive; active
25 | CN(C)C(=S)[S][Pb][S]C(=S)N(C)C | active

Row | SMILES | outcome
26 | CC(C)=CCC/C(C)=C/C=O | inactive; active
27 | NC(=O)/C(=C\c1ccc([N+](=O)[O-])o1)c1ccco1 | active
28 | CC(CN1c2ccccc2Sc2ccccc21)N(C)C (stereo not given) | inactive
29 | C1CNCCN1 | inactive
30 | CC(=O)OC/C=C(\C)CCC=C(C)C | inactive
31 | ClCC(Cl)Cl | inactive
32 | CCCCN(N=O)C(=N)N[N+](=O)[O-] | active
33 | CCN(C)N=O | active
34 | C=C(C)C#N | inactive; active
35 | O=NO | active
36 | CN(C)c1ccc(C(=N)c2ccc(N(C)C)cc2)cc1 | active
37 | O=c1c(O)c(-c2ccc(O)cc2)oc2cc(O)cc(O)c12 | active
38 | COC(=O)c1ccc(C(=O)OC)cc1 | inactive; active
39 | O=NN1CCC(O)C1 (stereo not given) | active
40 | O=C1CCO1 | active
41 | Cc1cc(O)c(C(C)(C)C)cc1Sc1cc(C(C)(C)C)c(O)cc1C | inactive; active
42 | Cc1cc(N=Nc2c(O)ccc3ccccc23)c(S(=O)(=O)O)cc1Cl | active
43 | COP(=S)(OC)Oc1ccc(SC)c(C)c1 | inactive; active
44 | O=[N+]([O-])c1cc([As](=O)(O)O)ccc1O | inactive
45 | Oc1ccccc1O | inactive; active
46 | ClC(Cl)=C(Cl)Cl | inactive; active
47 | CCc1ccc(C(c2ccc(CC)cc2)C(Cl)Cl)cc1 | active
48 | CC1(C)S[C@@H]2[C@H](NC(=O)COc3ccccc3)C(=O)N2[C@H]1C(=O)O | inactive; active
49 | CCCN(CCC)N=O | active
50 | O=C1C2(Cl)C3(Cl)C4(Cl)C(Cl)(Cl)C5(Cl)C3(Cl)C1(Cl)C5(Cl)C24Cl (stereo not given) | inactive; active

Row | SMILES | outcome
51 | Cc1cc(O)c(C)c2c1OC(C)(CCCC(C)CCCC(C)CCCC(C)C)CC2 (stereo not given) | inactive; active
52 | Nc1cc([N+](=O)[O-])ccc1C(=O)O | active
53 | OCC(CO)(CBr)CBr | active
54 | O=S(=O)(O)c1ccc(N=Nc2cc(S(=O)(=O)O)c3ccccc3c2O)c2ccccc12 | active; inactive
55 | [N-]=[N+]=CC(=O)OC[C@H](N)C(=O)O | active
56 | CC(=O)Nc1ccc(O)cc1 | inactive; active
57 | Nc1ccc(N=Nc2ccc(-c3ccc(N=Nc4c(S(=O)(=O)O)cc5cc(S(=O)(=O)O)c(N=Nc6ccccc6)c(O)c5c4N)cc3)cc2)c(N)c1 | active
58 | CCCN(N=O)C(N)=O | active
59 | CCCNC(=O)NS(=O)(=O)c1ccc(Cl)cc1 | inactive; active
60 | CN(N=O)c1ccccn1 | active; inactive
61 | FC(F)(F)CCl | inactive
62 | Cc1nc(N)cc2[nH]c3ccccc3c12 | active
63 | [Cl-].[Cl-].[Sn+2] | inactive
64 | OC(c1ccc(Cl)cc1)(c1ccc(Cl)cc1)C(Cl)(Cl)Cl | inactive; active
65 | Nc1ccc(Cl)c(N)c1 | active; inactive
66 | CC1CN(N=O)CC(C)N1C(=O)c1ccccc1 (stereo not given) | inactive
67 | Nc1ncn[nH]1 | inactive; active
68 | COc1ccc(C(c2ccc(OC)cc2)C(Cl)(Cl)Cl)cc1 | inactive; active
69 | O=NN1CC=CCC1 | active
70 | CN(C)C=O | inactive
71 | NC(=S)NNC(N)=S | inactive; inconclusive
72 | O=NN1CCCN(N=O)CC1 | active
73 | OC[C@H]1O[C@@](CO)(O[C@H]2O[C@H](CO)[C@@H](O)[C@H](O)[C@H]2O)[C@@H](O)[C@@H]1O | inactive; active
74 | ClC(Cl)Br | active
75 | O=C1O[C@H]([C@H](O)CO)C(O)=C1O | inactive

Row | SMILES | outcome
76 | CCCN(N=O)C(=N)N[N+](=O)[O-] | active; inactive
77 | CCOc1ccc(NC(C)=O)cc1N | active
78 | ClC1C(Cl)C(Cl)C(Cl)C(Cl)C1Cl (stereo not given) | inactive; active
79 | CC(=O)Nc1ccc2c(c1)Cc1ccccc1-2 | active
80 | O.O.O.O.O.O.O.O=S(=O)([O-])[O-].[Co+2] | active
81 | [Cl-].[Cl-].[Hg+2] | inactive; active
82 | Nc1ccc([N+](=O)[O-])cc1N | active
83 | O=C1CCC(=O)O1 | inactive; active
84 | CC1CO1 (stereo not given) | active
85 | O=c1ccc2ccccc2o1 | active; inactive
86 | O=P(O)(O)O | active; inactive
87 | CN(C)[C@@H]1C(=O)C(C(N)=O)=C(O)[C@@]2(O)C(=O)C3=C(O)c4c(O)cccc4[C@@](C)(O)[C@H]3[C@H](O)[C@@H]12 | inactive
88 | NC1CCCCC1 | inactive; active
89 | CCCCOC(=O)c1ccc(O)cc1 | inactive; active
90 | BrC(Br)Br | active
91 | COP(=O)(OC)OC=C(Cl)Cl | active; inactive
92 | ClC=C(Cl)Cl | inactive; active
93 | Nc1ccc2cc3ccc(N)cc3nc2c1 | active
94 | C[C@]12C=CC(=O)C=C1CC[C@@H]1[C@@H]2C(=O)C[C@@]2(C)[C@H]1CC[C@]2(O)C(=O)CO | active
95 | OO | active
96 | NC(=S)Nc1cccc2ccccc12 | active; inactive
97 | C#C[C@]1(O)CC[C@H]2[C@@H]3CCc4cc(O)ccc4[C@H]3CC[C@@]21C | inactive
98 | COc1ccc([N+](=O)[O-])cc1N | active; inactive
99 | CC(O)CN(CC(C)O)CC(C)O (stereo not given) | inactive; active
100 | CN(C)P(=O)(N(C)C)N(C)C | inactive
